From the OPERA property sets (Mansouri et al. 2018)

conditions: not given

SMILES | log10 Henry constant (atm·m³/mol) | melting point | ready biodegradability | boiling point | log10 biodegradation half-life (days) | log10 vapour pressure (mmHg) | log10 Koc (L/kg)
Cc1cccc(OP(=O)(Oc2cccc(C)c2)Oc2cccc(C)c2)c1 | -4.08 | 25.5 °C | readily biodegradable | – | – | – | –
CNC[C@H](O)c1ccccc1 | – | 44 °C | – | – | – | – | –
Clc1nc2ccccc2o1 | – | – | – | 202 °C | – | – | –
CCc1ccc(OC)cc1 | – | – | – | 198 °C | – | – | –
Cc1cccc2c1cc(C)c1cccc(C)c12 | – | – | – | – | 1.92 | – | –
Brc1ccccc1I | – | 9.5 °C | – | 257 °C | – | – | –
NC(Cc1ccccc1)C(=O)O (stereo not given) | – | – | readily biodegradable | – | – | – | –
Fc1c(F)c(F)c(F)c(F)c1F | – | – | – | 80.2 °C | – | 1.93 | –
CC(C)CCCO | – | – | – | 152 °C | – | – | –
CCOC(=O)C(CC)C(=O)OCC | – | – | – | 208 °C | – | – | –
COC(=O)c1ccccc1I | – | – | – | 280 °C | – | – | –
O=[N+]([O-])c1cc(C(F)(F)F)ccc1Cl | – | -2.5 °C | – | 222 °C | – | – | –
COCCCCl | – | – | – | 111 °C | – | – | –
C=CC=C | – | -109 °C | – | -4.4 °C | – | 3.32 | –
CCOc1cc(OP(=S)(OC)OC)nc(CC)n1 | – | -3.35 °C | – | – | – | -4.1 | –
CC(=O)C1CC=C(C)CC1 (stereo not given) | – | – | – | 171 °C | – | – | –
O=[N+]([O-])c1cccc(S(=O)(=O)O)c1 | – | – | not readily biodegradable | – | – | – | –
CCCCCCC(C)Cl (stereo not given) | – | – | – | 172 °C | – | 0.136 | –
CC1C2Cc3ccc(O)cc3C1(C)CCN2CCc1ccccc1 (stereo not given) | – | 181 °C | – | – | – | – | –
Cc1c(Cc2cc(C(C)(C)C)c(O)c(C(C)(C)C)c2)c(C)c(Cc2cc(C(C)(C)C)c(O)c(C(C)(C)C)c2)c(C)c1Cc1cc(C(C)(C)C)c(O)c(C(C)(C)C)c1 | – | 244 °C | not readily biodegradable | – | – | – | –
O=C(c1ccccc1)C(F)(F)F | – | -40 °C | – | 153 °C | – | – | –
CCCOCC(C)O (stereo not given) | – | -80 °C | – | 150 °C | – | 0.23 | –

SMILES | log10 Henry constant (atm·m³/mol) | melting point | ready biodegradability | boiling point | log10 biodegradation half-life (days) | log10 vapour pressure (mmHg) | log10 Koc (L/kg)
O=C1c2ccccc2C(=O)c2c(NCCO)cccc21 | – | 168 °C | – | – | – | -11 | –
Cc1nn(-c2cc(NS(C)(=O)=O)c(Cl)cc2Cl)c(=O)n1C(F)F | – | 122 °C | – | – | – | -9.01 | –
CC/C(=C\c1ccccc1)[N+](=O)[O-] | – | 90.5 °C | – | 308 °C | – | – | –
CC(=O)COc1ccccc1 | – | – | – | 230 °C | – | – | –
Oc1ccccc1I | – | 43 °C | not readily biodegradable | – | – | – | –
NNc1c(F)c(F)cc(F)c1F | – | 92 °C | – | – | – | – | –
CN1CCC(O)CC1 | – | 29 °C | – | 200 °C | – | – | –
COc1cccc(OC)n1 | – | – | – | 179 °C | – | – | –
CCc1ccc(Br)cc1 | – | -43.5 °C | – | 204 °C | – | -0.155 | –
c1ccc2c(N=Nc3cccc4ccccc34)cccc2c1 | – | 190 °C | – | – | – | – | –
ClC(Cl)=C(Cl)C(Cl)Cl | – | – | – | 185 °C | – | – | –
Cc1ccc(CCC=O)cc1 | – | – | – | 223 °C | – | – | –
OCCCCC(F)(F)F | – | – | – | 148 °C | – | – | –
C=Cc1cccnc1 | – | – | – | 162 °C | – | – | –
CNC(=O)O/N=C/C(C)(C)S(C)=O (stereo not given) | – | – | – | – | – | -4 | 0.56
Cc1cc(O)c(C(C)C)cc1C1(c2cc(C(C)C)c(O)cc2C)OC(=O)c2ccccc21 | – | 253 °C | – | – | – | – | –
ClC(Cl)(Cl)c1ccc(C(Cl)(Cl)Cl)cc1 | – | 109 °C | – | – | – | – | –
Clc1nnc(Cl)c2ccccc12 | – | – | not readily biodegradable | – | – | – | –
Cc1c(C)n(C)c2ccccc12 | – | 18 °C | – | 283 °C | – | – | –
O=c1cccc[nH]1 | – | 108 °C | readily biodegradable | 280 °C | – | – | –
Cc1cc(C)cc(OP(=O)(Oc2cc(C)cc(C)c2)Oc2cc(C)cc(C)c2)c1 | – | – | not readily biodegradable | – | – | – | –
CC(=O)OC(OC(C)=O)c1ccco1 | – | 53.3 °C | – | 220 °C | – | – | –

SMILES | log10 Henry constant (atm·m³/mol) | melting point | ready biodegradability | boiling point | log10 biodegradation half-life (days) | log10 vapour pressure (mmHg) | log10 Koc (L/kg)
CCOC(=O)N(C)N=O | – | – | – | – | – | 0.0719 | –
Cc1cccc(C)c1Cl | – | -35 °C | – | 186 °C | – | – | –
O=C1CCCCCCCCC1 | – | 28 °C | – | – | – | – | –
C=CC[C@]1(O)CC[C@H]2[C@@H]3CCC4=CCCC[C@@H]4[C@H]3CC[C@@]21C | – | 80 °C | – | – | – | – | –
O=C(O)C1CCCCCC1 | – | – | – | 259 °C | – | – | –
CC(=O)CC(c1ccco1)c1c(O)c2ccccc2oc1=O (stereo not given) | – | 124 °C | – | – | – | – | –
CN(C)CCc1ccc(O)cc1 | – | 118 °C | – | – | – | – | –
CCCC(=O)C(C)C | – | – | – | 135 °C | – | – | –
CCOC(=O)c1ccc(C)cc1 | – | – | – | 232 °C | – | – | 2.59
CCCCOC(=O)c1ccc(O)cc1 | – | 68.5 °C | – | – | – | – | –
N#CCCC[Si](Cl)(Cl)Cl | – | – | – | 238 °C | – | – | –
CCCCCCCCCCCCCCCCCCCCC | – | 40.5 °C | readily biodegradable | 356 °C | 1.4 | -4.06 | –
CCOC(=O)CC(SP(=S)(OC)OC)C(=O)OCC (stereo not given) | -8.31 | 2.8 °C | not readily biodegradable | – | – | -5.47 | 2.36
COC(F)(F)C(Cl)Cl | -2.43 | -35 °C | – | 105 °C | – | – | –
O=C(c1ccccc1)c1ccccc1C(F)(F)F | – | 61 °C | – | – | – | – | –
CCOC(=O)c1ccc2ccccc2c1 | – | 32 °C | – | 308 °C | – | – | –
C=C(C)OC(C)=O | – | -92.9 °C | – | 97 °C | – | – | –
O=C1C(Cl)=C(Cl)C(=O)N1c1ccc(F)cc1 | – | 241 °C | – | – | – | – | –
NCCCCCCO | – | 57 °C | – | – | – | -2.62 | –
CC(C)CCC[C@@H](C)[C@H]1CC[C@H]2C3=CC=C4C[C@@H](O)CC[C@]4(C)[C@H]3CC[C@]12C | – | 150 °C | – | – | – | – | –
CCOC(=O)C(Cl)Cc1cc(-n2nc(C)n(C(F)F)c2=O)c(F)cc1Cl (stereo not given) | – | -22.1 °C | – | 352 °C | – | -6.92 | –
CC(C)CC(Cl)Cl | – | – | – | 130 °C | – | – | –

SMILES | log10 Henry constant (atm·m³/mol) | melting point | ready biodegradability | boiling point | log10 biodegradation half-life (days) | log10 vapour pressure (mmHg) | log10 Koc (L/kg)
COc1ccc(-c2ccccc2)cc1NNC(=O)OC(C)C | – | 122 °C | – | – | – | – | –
NC(=O)c1nc(-c2ccccc2)n(-c2ccc(Cl)c(COCC(F)(F)C(F)(F)F)c2)n1 | – | 146 °C | – | – | – | – | –
c1cocn1 | – | – | – | 69.5 °C | – | 2.12 | –
CC(O)CNCC(C)O (stereo not given) | – | 44.5 °C | readily biodegradable | 250 °C | – | -3.9 | –
CC(C)OC(=O)C(C)O (stereo not given) | – | – | – | 167 °C | – | – | –
COCCC(C)C | – | – | – | 91 °C | – | – | –
Nc1c(I)cc(I)c(C(=O)N(CCC(=O)O)c2ccccc2)c1I | – | 134 °C | – | – | – | – | –
C=COCCC(C)C | – | – | – | 112 °C | – | – | –
CC1CCCC(C)(C)C1 (stereo not given) | – | -65.7 °C | – | 137 °C | – | 1.03 | –
COc1cc2c(cc1O)[C@H](Cc1ccc(O)cc1)NCC2 | – | 220 °C | – | – | – | – | –
CC(=O)c1ccccc1[N+](=O)[O-] | – | 28.5 °C | – | – | – | – | –
CN(C)c1ccc(N=NS(=O)(=O)O)cc1 | – | – | – | – | – | – | 1.18
FC(F)(F)c1cccc(C(F)(F)F)c1 | – | – | not readily biodegradable | 116 °C | – | – | –
CC(C)Nc1nc(Cl)nc(NC2CC2)n1 | – | 167 °C | – | – | – | -6.52 | –
CCCCCCCCCCCCCCCC(N)=O | – | 107 °C | not readily biodegradable | – | – | – | –
COc1cc(NC(=O)CC(C)=O)c(OC)cc1Cl | – | – | not readily biodegradable | – | – | – | –
FC(F)=C(F)C(F)=C(F)F | – | -132 °C | – | 6 °C | – | – | –
CCCCN(CCO)CCO | – | – | – | 275 °C | – | – | –
c1ccc(-c2cccnc2)nc1 | – | – | – | 296 °C | – | – | –

same assay, conditions: fish

SMILES | log10 BCF | log10 biotransformation half-life (days)
CCOC(=O)CC(SP(=S)(OC)OC)C(=O)OCC (stereo not given) | 1.52 | 0.29
Clc1ccc(Oc2c(Cl)cc(Cl)c(Cl)c2Cl)c(Cl)c1 | – | 2.76
